Source: article PMC5705267 (Synapse (New York, N.Y.), 2017)

Molecular target: GHSR1a (growth hormone secretagogue receptor 1a, ghrelin receptor) (Homo sapiens, UniProt Q92847)
Experiment: aequorin Ca2+ mobilization, antagonism of L-692, […] in HEK293 cells
Format: cell-based

Sequence of GHSR1a (growth hormone secretagogue receptor 1a, ghrelin receptor) (Q92847 whole entry): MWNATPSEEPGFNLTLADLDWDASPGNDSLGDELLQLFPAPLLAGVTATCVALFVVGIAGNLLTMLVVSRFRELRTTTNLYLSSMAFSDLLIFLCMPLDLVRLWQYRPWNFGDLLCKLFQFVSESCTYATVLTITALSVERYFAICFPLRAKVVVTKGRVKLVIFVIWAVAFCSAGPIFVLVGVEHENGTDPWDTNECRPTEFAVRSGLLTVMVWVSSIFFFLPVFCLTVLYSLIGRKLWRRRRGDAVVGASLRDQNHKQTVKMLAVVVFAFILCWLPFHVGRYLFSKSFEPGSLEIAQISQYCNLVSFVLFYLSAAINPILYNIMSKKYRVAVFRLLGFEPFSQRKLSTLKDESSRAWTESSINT

IC50: 185 nM
Structure (SMILES): Cc1nc2ccc(Oc3ccc(F)cc3)cc2c(=O)n1C[C@H]1CCCN(C(C)C)C1 [YIL781]
